Data as given in patent US20250171430A1, “PYRAZOLYL COMPOUNDS AS KV7 CHANNEL ACTIVATORS” (Biohaven Therapeutics Ltd., priority 2022, published 2025).

Each molecule was assayed against T1, Kv7.2/7.3 (Homo sapiens, UniProt O43525+O43526) (assay: Kv7.2/7.3 Activation Assay (Thallium Flux Assay)). Details: hKV7.2/7.3 cell line; test compound at single concentration of 10 μM; fluorescence at 90 sec normalized to positive control (retigabine, 30 μM).
T1 construct: Kv7.2 tetracycline-induced, Kv7.3 constitutive
Assay type: cell-based
Summary of the method: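 Single-point activity at 10 μM (0.1% DMSO, HEPES-buffered saline, pH 7.4) was scored from fluorescence at 90 s relative to 30 μM retigabine. Categories were none <0.15, moderate 0.15-0.7 and high >0.7. Thallium influx after stimulus addition was followed with FluxOR II Green dye in hKv7.2/7.3 cells, Kv7.2 expressed under overnight tetracycline (10 ng/mL) induction.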

| Kv7.2/7.3 Activity | Compound |
| --- | --- |
| − (“−” No Activity < 0.15) | Cn1nc(NC(=O)OCC(F)F)c(C2CCC2)c1C1COC1 [Compound 280, 2,2-difluoro-213-ethyl (4-cyclobutyl-1-methyl-5-(oxetan-3-yl)-1H-pyrazol-3-yl)carbamate] |
| ++ (“++” High Activity ≥ 0.7) | Cn1nc(NC(=O)OC2CC(F)(F)C2)c(C2CCC2)c1-c1ccc(OC(F)(F)F)cc1 [Compound 281, 3,3-difluorocyclobutyl (4-cyclobutyl-1-methyl-5-(4-(trifluoromethoxy)phenyl)-1H-pyrazol-3-yl)carbamate] |
| − (“−” No Activity < 0.15) | Cn1nc(NC(=O)C2CC(F)(F)C2)c(C2CCC2)c1C1COC1 [Compound 282, N-(4-cyclobutyl-1-methyl-5-(oxetan-3-yl)-1H-pyrazol-3-yl)-3,3-difluorocyclobutane-1-carboxamide] |
| ++ (“++” High Activity ≥ 0.7) | Cn1nc(NC(=O)C[C@@H]2CC(F)(F)C2(F)F)c(C2CCC2)c1-c1ccc(OC(F)F)nc1 [Compound 283, (R)-N-(4-cyclobutyl-5-(6-(difluoromethoxy)pyridin-3-yl)-1-methyl-1H-pyrazol-3-yl)-2-(2,2,3,3-tetrafluorocyclobutyl)acetamide] |
| ++ (“++” High Activity ≥ 0.7) | Cn1nc(NC(=O)C[C@@H]2CC(F)(F)C2(F)F)c(C2(C)CCC2)c1-c1ccc(F)cc1 [Compound 284, (R)-N-(5-(4-fluorophenyl)-1-methyl-4-(1-methylcyclobutyl)-1H-pyrazol-3-yl)-2-(2,2,3,3-tetrafluorocyclobutyl)acetamide] |
| + (“+” Moderate Activity 0.15-0.7) | Cn1nc(NC(=O)NC2CC(F)(F)C2)c(C2CCC2)c1-c1ccc(OC(F)(F)F)cc1 [Compound 285, 1-(4-cyclobutyl-1-methyl-5-(4-(trifluoromethoxy)phenyl)-1H-pyrazol-3-yl)-3-(3,3-difluorocyclobutyl)urea] |
| ++ (“++” High Activity ≥ 0.7) | Cn1nc(NC(=O)C2CC(F)(F)C2)c(C2(C)CCC2)c1-c1ccc(F)cc1 [Compound 286, 3,3-difluoro-N-(5-(4-fluorophenyl)-1-methyl-4-(1-methylcyclobutyl)-1H-pyrazol-3-yl)cyclobutane-1-carboxamide] |
| ++ (“++” High Activity ≥ 0.7) | Cn1nc(NC(=O)OC2CC(F)(F)C2)c(C2CCC2)c1-c1cc(F)c(F)c(F)c1 [Compound 287, 3,3-difluorocyclobutyl (4-cyclobutyl-1-methyl-5-(3,4,5-trifluorophenyl)-1H-pyrazol-3-yl)carbamate] |
| ++ (“++” High Activity ≥ 0.7) | Cn1nc(NC(=O)NC2CC(F)(F)C2)c(C2CCC2)c1-c1cc(F)c(F)c(F)c1 [Compound 288, 1-(4-cyclobutyl-1-methyl-5-(3,4,5-trifluorophenyl)-1H-pyrazol-3-yl)-3-(3,3-difluorocyclobutyl)urea] |
| ++ (“++” High Activity ≥ 0.7) | Cn1nc(NC(=O)C2CC(F)(F)C2)c(C2CCC2)c1C1CCC(F)(F)CC1 [Compound 289, N-(4-cyclobutyl-5-(4,4-difluorocyclohexyl)-1-methyl-1H-pyrazol-3-yl)-3,3-difluorocyclobutane-1-carboxamide] |
| ++ (“++” High Activity ≥ 0.7) | Cn1nc(NC(=O)NC2CC(F)(F)C2)c(C2CCC2)c1C1CC(F)(F)C1 [Compound 290, 1-(4-cyclobutyl-5-(3,3-difluorocyclobutyl)-1-methyl-1H-pyrazol-3-yl)-3-(3,3-difluorocyclobutyl)urea] |
| ++ (“++” High Activity ≥ 0.7) | CN(CC(F)(F)F)C(=O)Nc1nn(C)c(C2CC(F)(F)C2)c1C1CCC1 [Compound 291, 3-(4-cyclobutyl-5-(3,3-difluorocyclobutyl)-1-methyl-1H-pyrazol-3-yl)-1-methyl-1-(2,2,2-trifluoroethyl)urea] |
| ++ (“++” High Activity ≥ 0.7) | Cn1nc(NC(=O)OC2CC(F)(F)C2)c(C2CCC2)c1C1CCC(F)(F)CC1 [Compound 292, 3,3-difluorocyclobutyl (4-cyclobutyl-5-(4,4-difluorocyclohexyl)-1-methyl-1H-pyrazol-3-yl)carbamate] |
| ++ (“++” High Activity ≥ 0.7) | Cn1nc(NC(=O)NCC(F)(F)F)c(C2CCC2)c1C1CC(F)(F)C1 [Compound 293, 1-(4-cyclobutyl-5-(3,3-difluorocyclobutyl)-1-methyl-1H-pyrazol-3-yl)-3-(2,2,2-trifluoroethyl)urea] |
| ++ (“++” High Activity ≥ 0.7) | Cn1nc(NC(=O)NCC(C)(C)C)c(C2CCC2)c1C1CC(F)(F)C1 [Compound 294, 1-(4-cyclobutyl-5-(3,3-difluorocyclobutyl)-1-methyl-1H-pyrazol-3-yl)-3-neopentylurea] |
| ++ (“++” High Activity ≥ 0.7) | Cn1nc(NC(=O)OC2CCC2)c(C2CCC2)c1C1CC(F)(F)C1 [Compound 295, cyclobutyl (4-cyclobutyl-5-(3,3-difluorocyclobutyl)-1-methyl-1H-pyrazol-3-yl)carbamate] |
| ++ (“++” High Activity ≥ 0.7) | Cn1nc(NC(=O)NCC(F)F)c(C2CCC2)c1C1CC(F)(F)C1 [Compound 296, 1-(4-cyclobutyl-5-(3,3-difluorocyclobutyl)-1-methyl-1H-pyrazol-3-yl)-3-(2,2-difluoroethyl)urea] |
| ++ (“++” High Activity ≥ 0.7) | Cn1nc(NC(=O)NCC2CC(F)(F)C2)c(C2CCC2)c1C1CC(F)(F)C1 [Compound 297, 1-(4-cyclobutyl-5-(3,3-difluorocyclobutyl)-1-methyl-1H-pyrazol-3-yl)-3-((3,3-difluorocyclobutyl)methyl)urea] |
| − (“−” No Activity < 0.15) | Cn1nc(NC(=O)[C@H]2CC2(F)F)c(C2CCC2)c1-c1cnc(C(F)(F)F)s1 [Compound 298, (R)-N-(4-cyclobutyl-1-methyl-5-(2-(trifluoromethyl)thiazol-5-yl)-1H-pyrazol-3-yl)-2,2-difluorocyclopropane-1-carboxamide] |
